Laboratory results from US20080051454A1, “Compositions and methods for transient receptor potential vanilloid (TRPV) channel mediated treatments” (The Board of Trustees Operating Michigan State University, priority 2006, published 2008).

Tests used:
mesenteric arteries [1] = test: NADA-induced CGRP release from isolated mesenteric arteries (radioimmunoassay); design: species or system rat; details: CAPZ 10 μM pretreatment, NADA 10 μM; NS or HS
Experimental: After an 1 h stabilization period, the arteries were transferred to another chamber containing 1 ml of Krebs's solution with the addition of 0.05% BSA and drugs including NADA (1 or 10 μM) or CAPZ (10 μM). The tissues were removed after 20 min incubation, and the solutions were collected and evaporated. […] At the end of the experiment, the tissues were blotted and weighted. […] The results are expressed as pg of milligram of tissues.
This antibody has 100% cross-reactivity with rat a-CGRP and 79% with β-CGRP. There is no cross-reactivity with rat amylin, calcitonin, somatostatin, or substance P. The assay was performed following the manufacturer's protocol.

mesenteric arteries [2] = test: MethA-induced CGRP release from isolated mesenteric arteries (radioimmunoassay); design: species or system rat; details: CAPZ 10 μM, MethA 10 μM; NS or HS
Experimental: The arteries were dissected free of fat and connective tissues.
The preparations were incubated in a Krebs' solution of the following compositions (in mM): NaCl 119, NaHCO3 25, KH2PO4 1.2, MgSO4 1.5, CaCl2 2.5, KCl 4.7, and D-glucose 11. The Krebs' solution was maintained at 37 °C and gassed with 95% O2 and 5% CO2. After 1 h stabilization period, the arteries were transferred to another chamber containing 1 ml of Krebs' solution with the addition of 0.05% BSA and drugs. […] The tissues were removed after 20 min incubation, and the solutions were collected. At the end of the experiment, the tissues were blotted and weighted.
This antibody has 100% cross-reactivity with rat α-CGRP and 79% with rat β-CGRP. There is no cross-reactivity with rat amylin, calcitonin, somatostatin, or substance P.

WT hearts = test: Preconditioning (PC) protection against I/R in Langendorff hearts with receptor antagonists, wild type; design: species or system mouse
Experimental: Male TRPV1 gene knockout (TRPV1-/-) strain B6.129S[…][…]^tm1Jul and matching control wild type (WT) strain C57BL/6J mice were used (Jackson Laboratory, Bar Harbor, Me.). Mice were heparinized (500 U/kg i.p.) and anesthetized with pentobarbital sodium (50 mg/kg i.p.). […] The distal end of the catheter was connected to a […] Performance Analyzer via a pressure transducer. Coronary flow (CF) was continuously measured using an ultrasonic flow probe placed in the aortic perfusion line. Hearts were paced at 400 bpm except during ischemic PC and sustained global ischemia to avoid inducing excessive ventricular tachyarrhythmia during reperfusion, and pacing was reinitiated 2 minutes after reperfusion. Left ventricular developed pressure (LVDP, peak systolic minuses LVEDP) and LV peak positive […]) during isovolumic contraction were used as indices of LV systolic function; LVEDP and the peak negative […] used as indices of LV diastolic function. […] Non-preconditioned hearts were time-matched perfused with the same duration as that of preconditioned hearts. Group 1: Controls. As normal controls (nonischemic), WT and TRPV1-/- hearts were perfused for 130 minutes. For I/R controls, WT and TRPV1-/- hearts were first perfused with Krebs-Henseleit buffer for 55 min (time-matched perfusion of the equilibration period plus the PC period), and subsequently subjected to 30 minutes of no-flow normothermic global ischemia followed by 40-minutes of reperfusion. Group 2: PC. […] The hearts were subjected to 30 minutes of no-flow normothermic global ischemia followed by 40-minutes of reperfusion as that of I/R control groups. Group 3: PC plus capsazepine (CAPZ). […] Two additional concentrations of CAPZ, 10^-6M and 10^-8 M, were used in WT hearts. An additional drug control was added. After a 20-minute equilibration period, WT hearts were perfused with CAPZ (10^-7 M) for 10 minutes without PC, followed by perfusion with Krebs-Henseleit buffer for 25 minutes (time-matched perfusion of the PC period) and then subjected to I/R. Group 4: […] Two additional concentrations of CGRP8-37, 10^-5 M and 10^-7 M, were used in WT hearts. An additional drug control of CGRP8-37 was added as that of the CAPZ control group. Group 5: PC plus RP67580. To determine the role of endogenous SP during PC, hearts from WT and TRPV1-/-mice were perfused as that of CAPZ with RP67580 (10^-7 M), a selective neurokinin-1 (NK1) receptor antagonist. Two additional concentrations of RP67580, 10^-6 M and 10^-8 M, were used in WT hearts. An additional drug control of RP67580 was added as that of the CAPZ control group.

Wistar rats fed HS diet = test: Blood pressure after i.v. SR141716A or CAPZ in conscious rats fed HS diet (Example I); type: in vivo, rat; details: 3 mg/kg iv
Experimental: Experiments were approved by the Institutional Animals Care and Use Committee. Experiments were performed using male Wistar rats (Charles River Laboratory, Wilmington, Mass.). Rats (6 weeks old) were housed in the animal facility for 1 week before the experiments. Rats were then randomly assigned to a normal-sodium (NS) diet (0.4% of Na+ by weight, Harlan Teklad) or HS (4% of Na+ by weight; Harlan Teklad) for 3 weeks. Rats drank water ad libitum throughout the experiment.
Surgical Preparation and MAP measurements: The rats were anesthetized with ketamine and xylazine (80 and 4 mg/kg intraperitoneally, respectively) for implantation of vascular catheters or with urethane ([…] intraperitoneally) throughout protocol 2. […]
Protocol 1: Rats fed a NS or HS diet were randomly assigned to 5 groups for intravenous injection of vehicle or MethA alone or in combination with SR141716A (a CB1 receptor antagonist), CAPZ (a VR1 receptor antagonist), or the combination of the 2 (n=5 to 8). Baseline MAP and its response to the aforementioned drugs were determined 3 hours after surgery when animals were fully awake and unrestrained as described previously. […]

Oc1cc2c(cc1O)CN(C(=S)NCCc1ccc(Cl)cc1)CCC2 [CAPZ, N-[2-(4-Chlorophenyl)ethyl]-1,3,4,5-tetrahydro-7,8-dihydroxy-2H-2-benzazepine-2-carbothioamide]
effect on NADA-induced CGRP release (mesenteric arteries [1]): blocked
effect on MethA-induced CGRP release (mesenteric arteries [2]): blocked
effect on cardiac function in WT hearts without I/R (WT hearts): no effect on cardiac function
effect on PC-induced cardiac protection (LVEDP, LVDP, CF, +dP/dt, −dP/dt) in WT hearts (WT hearts; CAPZ 10^−7 M, CGRP8-37 10^−6 M, RP67580 10^−7 M): abolished PC induced protection
duration of transient elevation in blood pressure after injection (Wistar rats fed HS diet): ≤ 7 min
